Measured values published in paper PMC11157767 (Molecular Cancer, 2024).

System: TFG-MET allograft tumors
Assay: RNA-sequencing, differential expression and GSEA of TFG-MET allograft tumors
Format: in vivo, mouse
Settings: for NES / ES: CAP v Veh
Method: Error bars display standard error of mean, statistical significance was determined using t-test analysis. (****;p<0.0001, ***;p<0.001, **;p<0.01, *;p<0.05). […] Each dot represents an individual replicate. Error bars display standard error of the mean.
Each dot represents one gene.

## CNC(=O)c1ccc(-c2cnc3ncc(Cc4ccc5ncccc5c4)n3n2)cc1F [Capmatinib]
GOMF_METHYL_CPG_BINDING, padj 0.00511198
  NES: -1.901
GOMF_MHC_CLASS_I_PROTEIN_BINDING
  ES: 0.5483
GOMF_MHC_CLASS_I_PROTEIN_BINDING, padj 0.0474647
  NES: 1.828
GOMF_MHC_PROTEIN_BINDING
  ES: 0.5523
GOMF_MHC_PROTEIN_BINDING, padj 0.00543159
  NES: 2.003
GOMF_MHC_PROTEIN_COMPLEX_BINDING
  ES: 0.5077
GOMF_MHC_PROTEIN_COMPLEX_BINDING, padj 0.0199782
  NES: 1.841
GOMF_MOLECULAR_CARRIER_ACTIVITY
  ES: -0.4555
GOMF_MOLECULAR_CARRIER_ACTIVITY, padj 0.0120933
  NES: -1.714
GOMF_MONOCARBOXYLIC_ACID_BINDING
  ES: 0.3828
GOMF_MONOCARBOXYLIC_ACID_BINDING, padj 0.0474647
  NES: 1.672
GOMF_MRNA_3_UTR_AU_RICH_REGION_BINDING
  ES: -0.5181
GOMF_MRNA_3_UTR_AU_RICH_REGION_BINDING, padj 0.0473079
  NES: -1.618
GOMF_NUCLEAR_HORMONE_RECEPTOR_BINDING, padj 0.072562
  NES: -1.431
GOMF_NUCLEAR_IMPORT_SIGNAL_RECEPTOR_ACTIVITY
  ES: -0.6033
GOMF_NUCLEAR_IMPORT_SIGNAL_RECEPTOR_ACTIVITY, padj 0.0320889
  NES: -1.75
GOMF_NUCLEAR_LOCALIZATION_SEQUENCE_BINDING
  ES: -0.6311
GOMF_NUCLEAR_LOCALIZATION_SEQUENCE_BINDING, padj 0.00765978
  NES: -1.864
GOMF_NUCLEOSOMAL_DNA_BINDING
  ES: -0.5966
GOMF_NUCLEOSOMAL_DNA_BINDING, padj 0.0072907
  NES: -1.89
GOMF_N_ACETYLTRANSFERASE_ACTIVITY
  ES: -0.4164
GOMF_N_ACETYLTRANSFERASE_ACTIVITY, padj 0.0419799
  NES: -1.576
GOMF_N_ACYLTRANSFERASE_ACTIVITY
  ES: -0.4102
GOMF_N_ACYLTRANSFERASE_ACTIVITY, padj 0.0206273
  NES: -1.607
GOMF_OXIDOREDUCTASE_ACTIVITY_ACTING_ON_PEROXIDE_AS_ACCEPTOR
  ES: 0.4091
GOMF_OXIDOREDUCTASE_ACTIVITY_ACTING_ON_PEROXIDE_AS_ACCEPTOR, padj 0.0419799
  NES: 1.715
GOMF_PATTERN_RECOGNITION_RECEPTOR_ACTIVITY
  ES: 0.5546
GOMF_PATTERN_RECOGNITION_RECEPTOR_ACTIVITY, padj 0.0257673
  NES: 1.913
GOMF_PEPTIDE_LYSINE_N_ACETYLTRANSFERASE_ACTIVITY
  ES: -0.4722
GOMF_PEPTIDE_LYSINE_N_ACETYLTRANSFERASE_ACTIVITY, padj 0.0420426
  NES: -1.64
GOMF_PEPTIDE_N_ACETYLTRANSFERASE_ACTIVITY
  ES: -0.5177
GOMF_PEPTIDE_N_ACETYLTRANSFERASE_ACTIVITY, padj 0.00513885
  NES: -1.848
GOMF_PHOSPHATIDYLINOSITOL_BINDING
  ES: -0.3004
GOMF_PHOSPHATIDYLINOSITOL_BINDING, padj 0.0651825
  NES: -1.368
GOMF_POLY_A_BINDING
  ES: -0.5704
GOMF_POLY_A_BINDING, padj 0.0381242
  NES: -1.705
GOMF_POLY_PURINE_TRACT_BINDING
  ES: -0.5827
GOMF_POLY_PURINE_TRACT_BINDING, padj 0.00978552
  NES: -1.871
GOMF_POLY_PYRIMIDINE_TRACT_BINDING
  ES: -0.5996
GOMF_POLY_PYRIMIDINE_TRACT_BINDING, padj 0.0067416
  NES: -1.9
GOMF_PROMOTER_SPECIFIC_CHROMATIN_BINDING
  ES: -0.4442
GOMF_PROMOTER_SPECIFIC_CHROMATIN_BINDING, padj 0.0320889
  NES: -1.624
GOMF_PROTEIN_DEMETHYLASE_ACTIVITY
  ES: -0.5705
GOMF_PROTEIN_DEMETHYLASE_ACTIVITY, padj 0.0162496
  NES: -1.8078
GOMF_PROTEIN_DIMERIZATION_ACTIVITY
  ES: -0.2556
GOMF_PROTEIN_DIMERIZATION_ACTIVITY, padj 0.0359639
  NES: -1.243
GOMF_PROTEIN_HETERODIMERIZATION_ACTIVITY
  ES: -0.3318
GOMF_PROTEIN_HETERODIMERIZATION_ACTIVITY, padj 0.0174921
  NES: -1.498
GOMF_PROTEIN_KINASE_ACTIVITY
  ES: -0.2726
GOMF_PROTEIN_KINASE_ACTIVITY, padj 0.0456955
  NES: -1.304
GOMF_PROTEIN_PHOSPHATASE_2A_BINDING
  ES: -0.5386
GOMF_PROTEIN_PHOSPHATASE_2A_BINDING, padj 0.0201355
  NES: -1.753
GOMF_PROTEIN_SERINE_THREONINE_KINASE_ACTIVITY
  ES: -0.3032
GOMF_PROTEIN_SERINE_THREONINE_KINASE_ACTIVITY, padj 0.0120933
  NES: -1.428
GOMF_PROTEIN_TYROSINE_PHOSPHATASE_ACTIVITY
  ES: -0.3851
GOMF_PROTEIN_TYROSINE_PHOSPHATASE_ACTIVITY, padj 0.0351889
  NES: -1.569
GOMF_PROTON_CHANNEL_ACTIVITY
  ES: 0.5654
GOMF_PROTON_CHANNEL_ACTIVITY, padj 0.036911
  NES: 1.8848
GOMF_PROTON_TRANSPORTING_ATP_SYNTHASE_ACTIVITY_ROTATIONAL_MECHANISM
  ES: 0.5869
GOMF_PROTON_TRANSPORTING_ATP_SYNTHASE_ACTIVITY_ROTATIONAL_MECHANISM, padj 0.0283897
  NES: 1.877
GOMF_REGULATORY_RNA_BINDING
  ES: -0.5385
GOMF_REGULATORY_RNA_BINDING, padj 0.00683082
  NES: -1.8485
GOMF_RIBONUCLEOPROTEIN_COMPLEX_BINDING
  ES: -0.5611
GOMF_RIBONUCLEOPROTEIN_COMPLEX_BINDING, padj 7.15005e-11
  NES: -2.398
GOMF_RNA_POLYMERASE_CORE_ENZYME_BINDING
  ES: -0.5304
GOMF_RNA_POLYMERASE_CORE_ENZYME_BINDING, padj 0.00672226
  NES: -1.848
GOMF_RNA_POLYMERASE_II_SPECIFIC_DNA_BINDING_TRANSCRIPTION_FACTOR_BINDING
  ES: -0.3093
GOMF_RNA_POLYMERASE_II_SPECIFIC_DNA_BINDING_TRANSCRIPTION_FACTOR_BINDING, padj 0.0419799
  NES: -1.413
GOMF_RNA_POLYMERASE_II_TRANSCRIPTION_COREGULATOR_BINDING
  ES: -0.521
GOMF_RNA_POLYMERASE_II_TRANSCRIPTION_COREGULATOR_BINDING, padj 0.0452435
  NES: -1.627
GOMF_RNA_POLYMERASE_II_TRANSCRIPTION_COREPRESSOR_BINDING
  ES: -0.5717
GOMF_RNA_POLYMERASE_II_TRANSCRIPTION_COREPRESSOR_BINDING, padj 0.0607303
  NES: -1.658
GOMF_SCAVENGER_RECEPTOR_ACTIVITY
  ES: 0.3949
GOMF_SCAVENGER_RECEPTOR_ACTIVITY, padj 0.0600708
  NES: 1.665
GOMF_SMAD_BINDING
  ES: -0.4569
GOMF_SMAD_BINDING, padj 0.00360904
  NES: -1.79
GOMF_SNORNA_BINDING
  ES: -0.7989
GOMF_SNORNA_BINDING, padj 3.3197e-10
  NES: -2.624
GOMF_SUMO_BINDING
  ES: -0.6876
GOMF_SUMO_BINDING, padj 0.00672226
  NES: -1.882
GOMF_SUMO_TRANSFERASE_ACTIVITY
  ES: -0.594
GOMF_SUMO_TRANSFERASE_ACTIVITY, padj 0.0682113
  NES: -1.626
GOMF_S_ADENOSYLMETHIONINE_DEPENDENT_METHYLTRANSFERASE_ACTIVITY
  ES: -0.5424
GOMF_S_ADENOSYLMETHIONINE_DEPENDENT_METHYLTRANSFERASE_ACTIVITY, padj 2.7667e-10
  NES: -2.336
GOMF_THIOLESTER_HYDROLASE_ACTIVITY
  ES: 0.4211
GOMF_THIOLESTER_HYDROLASE_ACTIVITY, padj 0.0377403
  NES: 1.7345
GOMF_TRANSCRIPTION_COREGULATOR_BINDING
  ES: -0.4265
GOMF_TRANSCRIPTION_COREGULATOR_BINDING, padj 0.0442278
  NES: -1.612
GOMF_TRANSCRIPTION_COREPRESSOR_BINDING
  ES: -0.5161
GOMF_TRANSITION_METAL_ION_BINDING
  ES: -0.2675
GOMF_TRANSITION_METAL_ION_BINDING, padj 0.0113612
  NES: -1.302
GOMF_TRANSLATION_REGULATOR_ACTIVITY
  ES: -0.5628
GOMF_TRANSLATION_REGULATOR_ACTIVITY, padj 1.90601e-11
  NES: -2.407
GOMF_TRNA_BINDING
  ES: -0.6579
GOMF_TRNA_BINDING, padj 2.7667e-10
  NES: -2.532
GOMF_UBIQUITIN_LIKE_PROTEIN_BINDING
  ES: -0.3584
GOMF_UBIQUITIN_LIKE_PROTEIN_BINDING, padj 0.0474647
  NES: -1.467
GOMF_UNFOLDED_PROTEIN_BINDING
  ES: -0.3758
GSEA CAP vs Veh, C5 GO CC, padj 2.86725e-63
  NES GOCC_NUCLEOLUS: -2.612
GSEA CAP vs Veh, C5 GO CC, padj 3.5373e-43
  NES GOCC_RIBONUCLEOPROTEIN_COMPLEX: -2.521
GSEA CAP vs Veh, C5 GO CC, padj 3.83827e-29
  NES GOCC_NUCLEAR_BODY: -2.196
GSEA CAP vs Veh, C5 GO CC, padj 8.43804e-27
  NES GOCC_PRERIBOSOME: -3.164
GSEA CAP vs Veh, C5 GO CC, padj 8.8925e-17
  NES GOCC_CHROMOSOMAL_REGION: -2.317
